Test results from patent US5225441A, “Treatment of periodontal disease” (Block Drug Company, Inc., priority 1987, dated 1993).

Experiments:
[1] = test system: periodontally supporting bone loss; settings: beagle dog model; clinical index of periodontal disease progression; cited from earlier work
[2] = biological target: periodontal cyclooxygenase; assay: Inhibition of cyclooxygenase products (14C arachidonic acid incorporation) in inflamed human gingival tissue homogenate; type: biochemical; settings: for % Control: 2 hours at 37° C.
Description: Inflamed human gingival tissue was obtained from patients with periodontitis who were undergoing routine periodontal surgery. The tissues were immediately stored in liquid nitrogen prior to use or were used fresh. The assay of cyclooxygenase products was performed as a modification of the assay of El Attar et al., J. Periodon. Res., 21, 169-176 (1986). Pooled tissue was weighed and homogenized at 0°-4° C. with a polytron (Brinkman) homogenizer in a 0.2 M TRIS buffer, pH 8.0, at a final concentration of 20 mg/ml. After centrifugation for 10 minutes at 1200×g, the supernatant was divided into 3 ml aliquots for incubation in the presence or absence of a test compound. The test compounds were tested in triplicate over a log range of 10^-3 to 10^-9 M. The reaction was started by the addition of 0.2 uCi of ^14 C arachidonic acid and carried out for 2 hours at 37° C. The reaction was stopped by the addition of two volumes of ethanol and allowed to remain at room temperature for 30 minutes prior to centrifugation for 10 minutes in order to remove the precipitate. The prostaglandin was then extracted.
Prostanoids were extracted as described by Powell, Methods in Eng., 86, 467 (1982) using a Sep-Pak-C18 cartridge from Walters Associates. The Sep-Pak was prepared by the sequential elusion of 20 milliliters of ethanol and 20 milliliters of water. The sample was then adjusted to 15% ethanol, pH 3.0, with acetic acid and applied to the column. The column was eluted with 20 ml of 15% ethanol, pH 3.0, 20 ml of petroleum ether and then the prostaglandin and Tx (thromboxane) was eluded with 10 ml of methyl formate. Thereafter, the methyl formate was evaporated to dryness with nitrogen and reconstituted in 32% […] (high-pressure liquid chromatography buffer).
These are readily separated and quantified using a 4.6×100 mm RP-18 Spheri-5u column from Brownlee Labs. A Flow-One radioactivity monitor simultaneously measured radioactivity. The elution was monitored at 192 nanometers.
The net incorporation of the ^14 C arachidonate was measured in the absence of the test substance in order to determine the maximal activity of the cyclooxygenase cascade. The percent inhibition for the inhibitors tested was then determined at several concentrations in order to calculate the IC50.

In the case of `CC(C)Cc1ccc(C(C)C(=O)O)cc1` (centres unmarked) [ibuprofen], the “Inhibition of periodontally supporting bone loss” value [1] is listed as “effective”, the IC50 ([2]; calculated from percent inhibition at several concentrations) is listed as 15 µM and the “% Control” value ([2]; drug concentration 1 × 10^-4 M, 100 µM) is listed as 27.5%. The “% Control” value ([2]; drug concentration 1 × 10^-5 M, 10 µM) was 55.6% and the “% Control” value ([2]; drug concentration 10^-6 M, 1 µM) was 92.6%.
